Source: patent US11364286B2, “Compositions and methods for the treatment of diseases involving mucin” (priority 2015, dated 2022)
Structures can show the parent of a compound that is named as a salt.

Experiments:
[1] = test system: human ovarian cancer cell line A2780; test: Cell viability, SRB assay, 3 days, A2780; format: cell-based; set-up: unit not given here; settings: A2780, 3 days
Experimental: All cells were maintained at 37° C. The cytotoxic effects of cysteamine, bromelain and the chemotherapeutic agent cisplatin were assessed. Each agent was administered to the cells either alone or in combination with either or both of the other agents. All cells were treated for 72 hours with the reagents and the cell populations were assessed using the SRB assay. Where possible, IC50 and ICmax were calculated. […] Cells were subjected to various treatment regimens as indicated for 3 days before SRB assays were performed.

[2] = test system: soft mucin from PMP patients; test: Disintegration of soft PMP mucin (weight of remnant mucin after incubation with the agents); format: biochemical, human; settings: for effect of individual agents on mucin weight over time: Bromelain 300 & 200 μg/ml, NAC 250 mM, Cysteamine 200 mM alone, 0.5-3 h 37°C; for Percentage Disintegration of Mucin Samples: 0 μg/ml BR, negative = gain in weight
Experimental: Mucin samples from PMP patients were collected and stored under sterile conditions at −80° C. For experiments, the mucin was thawed to room temperature before use. One gram of soft mucin was transferred to a 50 ml centrifuge tube containing 10 ml of either 0.1 M TRIS buffer (pH. 7.0)—controls or similar arrangement containing various concentrations of cysteamine, bromelain or a mixture of the latter two reagents. The concentrations of bromelain investigated ranged from 100-300 μg/ml whilst for cysteamine it was 12.5, 25, 50, 100 and 200 mM. Stock solutions were prepared under sterile conditions in TRIS buffer pH adjusted to 7.0 using 0.1 M Sodium Hydroxide or 0.1 M Hydrochloric acid and the required quantities were added to the respective centrifuge tubes containing the mucin. The tubes were then transferred to a shaking water bath at 37° C. for 2 hours.
At the end of incubation, the remnant mucin was retrieved and weighed. The experiment was carried out using triplicate tubes and readings averaged. All experiments were performed in triplicate.
To a 50 ml centrifuge tube containing 1 g of mucin was added 10 ml of TRIS pH. 7.0 containing 300 μg/ml bromelain+250 mM NAC. Similarly, to 1 g of mucin was added 10 ml of TRIS buffer containing 200 μg/ml bromelain+200 mM cysteamine. For each time interval (0.5, 1.0, 1.5, 2.0, 2.5 and 3.0 h), a total of 6 tubes in triplicate were prepared. The controls contained, TRIS, Bromelain (300 μg/ml & 200 μg/ml), NAC (250 mM) and Cysteamine (200 mM) with mucin (also prepared for each time interval, in triplicates).
The tubes were incubated at 37° C., in a shaker water bath, sample tubes were retrieved at time interval of 0.5 hour and remnant mucin was carefully retrieved and weighed. Percentage weight lost was calculated as follows:
Percentage weight lost (disintegration)=[mucin weight (at 0 hr)−mucin weight (2 or 3 hr)]/mucin weight (at 0 hr).
The experiment was set up as outlined above in Examples 1 and 2 above, however using 10, 20, 40, 60, 80 & 100 μg/ml bromelain with varying concentrations of cysteamine (10, 20, 30, 40 & 50 mM) and the incubation was carried out at 37° C. in a shaker for 3 hours. The controls contained TRIS buffer, 10, 20, 40, 60, 80 & 100 μg/ml bromelain and 10, 20, 30, 40 & 50 mM cysteamine. Each tube was prepared in triplicate and readings averaged.
Experiments were set up as before using 1 g of mucin in a 50 ml centrifuge tube containing either TRIS buffer (pH 7.0), 50 μg/ml bromelain, 50 mM cysteamine or a combination of the last two agents. Six samples from each grades of mucin (soft, semi-hard and hard) were chosen for the experiment and the tubes were incubated in a shaker water bath at 37° C. for duration of 3 hours. The remnant mucin were carefully retrieved and weighed.

[3] = test system: hard mucin from PMP patients; test: Disintegration of hard PMP mucin (weight of remnant mucin); format: biochemical, human; settings: 50 mM cysteamine, alone or with 50 μg/ml bromelain; 37°C, 3 hours
[4] = test system: HT29 colorectal cancer cells; test: Proliferation, SRB assay, 72 hour culture, HT29; format: cell-based; settings: individually or in combination
Experimental: (§1) 5000 cells of each cell line were plated in 96 well plates and grown for 48 hrs at 37° C. in humidified CO2 incubator. After this the medium was replaced with drugs, bromelain, cysteamine and cisplatin in alone or in various combinations. Control wells had medium only. Plates were further incubated for 72 hrs. At the end of incubation proliferation was determined by SRB assay.
(§2) Materials and Method: • 0.4% (w/v) SRB: 1.0 g SRB— Sulforhodamine B sodium salt—(#S1402, SIGMA) in 250 ml of 1% acetic acid (stored at room temperature) • 10% (w/v) TCA: 50 g of Trichloroacetic acid (#T9159, SIGMA) in 500 ml of Milli-Q water (stored at 4° c.) • 10 mM Tris Base: 0.6055 g Tris (Trizma® base, #T6066, SIGMA) in 500 ml of Milli-Q water (stored at 4° c.) • 1% acetic acid: 10 ml of acetic acid in 1000 ml of Milli-Q water.
(§3) 1. After an incubation period of 72 hours, the old medium was discarded and cells were fixed with 200 μl of 10% (w/v) ice-cold TCA (trichloroacetic acid) for 30 minutes at 4° C.
(§4) 2. The plate was washed in distilled water 5 times.
(§5) 3. 100 μl of 0.4% (w/v) sulphorhodamine (SRB) solution was added to each well of the dry 96-well plates and they were allowed staining at room temperature for 10 mins.
4. […]
(§6) 6. The plate was read in a microplate reader (PowerWaveX, BIO-TEK instruments, Inc, USA) with the working wavelength 570 nm. […]

[5] = test system: MKN45 gastric cancer cells; test: Proliferation, SRB assay, 72 hour culture, MKN45; format: cell-based, human; settings: combination at the highest concentrations tested
Experimental: as §1, §2, §3, §4, §5
4. […]
as §6

YOU mesothelioma cells = test: Cell viability, SRB assay, 72 h, YOU cells; format: cell-based; settings: Cysteamine single agent
Experimental: as §1, with “assay. […]” for “assay.”
as §6
(§7) The cytotoxic effects of cysteamine, bromelain and the chemotherapeutic agent cisplatin were assessed. […] All cells were treated for 72 hours with the reagents and the cell populations were assessed using the SRB assay. Where possible, IC50 and ICmax were calculated.
(§8) Using Chou and Tallarida Method (Tallarida R J. The interaction index: a measure of drug synergism. Pain 2002; 98: 163-168), the Interaction index (γ) was evaluated for a combination of 2 and 3 drugs (γ=1 (additive) (ADD); γ=<1 (synergistic) (SYN) and γ=>1 (sub-additive) (SUB)).

PET mesothelioma cells = test: Cell viability, SRB assay, 72 h, PET cells; format: cell-based; settings: Cysteamine single agent
Experimental: as §1, with “assay. […]” for “assay.”
as §6, §7, §8

[6] = test system: human colorectal cancer cell line HT295M12; test: Cell viability, SRB assay, 3 days, HT295M12; format: cell-based; settings: Column B=Cysteamine 1 mg/ml (FIG. 19)
Experimental: (§9) Mesothelioma (YOU and PET), gastric (KATO-III), Colorectal (LS174T and HT295m21), pancreatic (ASPC-1 and CFPAC) and ovarian (A2780) cell lines were grown in RPMI supplemented with 10% FBS, 100 U/ml penicillin and 100 μg/ml streptomycin. All cells were maintained at 37° C.
(§10) The cytotoxic effects of cysteamine, bromelain and the chemotherapeutic agent cisplatin were assessed. Each agent was administered to the cells either alone or in combination with either or both of the other agents. All cells were treated for 72 hours with the reagents and the cell populations were assessed using the SRB assay. Where possible, IC50 and ICmax were calculated.
Data from two independent experiments are represented as mean±SD (6 replicates for each treatment group).

[7] = test system: human gastric cancer cell line KATO-III; test: Cell viability, SRB assay, 3 days, KATO-III; format: cell-based; settings: Cysteamine only
Experimental: as §9, §10
Cells were subjected to various treatment regimens as indicated for 3 days before SRB assays were performed. Data are represented as mean±SD (6 replicates for each treatment group).

[8] = FIG. 22A, 0.25 mg/ml, lowest of 0.25-1 mg/ml
[9] = FIG. 22A, 1 mg/ml, highest of 0.25-1 mg/ml
[10] = FIG. 22A, middle concentration of 0.25-1 mg/ml, value not given
[11] = FIG. 22B, 0.25 mg/ml, lowest of 0.25-1 mg/ml
[12] = FIG. 22B, 1 mg/ml, highest of 0.25-1 mg/ml
[13] = FIG. 22B, middle concentration of 0.25-1 mg/ml, value not given
[14] = FIG. 22C, 0.25 mg/ml, lowest of 0.25-1 mg/ml
[15] = FIG. 22C, 1 mg/ml, highest of 0.25-1 mg/ml
[16] = FIG. 22C, middle concentration of 0.25-1 mg/ml, value not given

| SMILES | Mean Diff. (Holm-Sidak's multiple comparisons test), control vs. treatment [1, 8] | Mean Diff. (Holm-Sidak's multiple comparisons test), control vs. treatment [1, 9] | Mean Diff. (Holm-Sidak's multiple comparisons test), control vs. treatment [1, 10] | effect of individual agents on mucin weight over time [2] | Mean Diff. (Holm-Sidak's multiple comparisons test), control vs. treatment [1, 11] | Mean Diff. (Holm-Sidak's multiple comparisons test), control vs. treatment [1, 12] | Mean Diff. (Holm-Sidak's multiple comparisons test), control vs. treatment [1, 13] | Mean Diff. (Holm-Sidak's multiple comparisons test), control vs. treatment [1, 14] | Mean Diff. (Holm-Sidak's multiple comparisons test), control vs. treatment [1, 15] | Mean Diff. (Holm-Sidak's multiple comparisons test), control vs. treatment [1, 16] | also measured |
| --- | --- | --- | --- | --- | --- | --- | --- | --- | --- | --- | --- |
| NCCS [Cysteamine dihydrochloride] | 55.20 | 94.04 | 74.31 |  |  |  |  |  |  |  |  |
| NCCS [Cysteamine, cysteamine] | 40.75 | 87.12 | 61.62 | only showed hydration initially, with subsequent slight disintegration and hydration | 30.75 | 81.49 | 53.01 | 55.93 | 88.77 | 70.70 | effect of single agents on mucin weight ([2]; Bromelain 100, 200, 300 μg/ml or Cysteamine 12.5-200 mM as single agents, 2 h 37°C): only showed the mucin gaining weight, indicating hydration; Percentage Disintegration of Mucin Samples ([2]; CIS 12.5 mM, 2 h 37°C): −117%; Percentage Disintegration of Mucin Samples ([2]; CIS 25 mM, 2 h 37°C): −115%; Percentage Disintegration of Mucin Samples ([2]; CIS 50 mM, 2 h 37°C): −100%; Percentage Disintegration of Mucin Samples ([2]; CIS 100 mM, 2 h 37°C): −111%; Percentage Disintegration of Mucin Samples ([2]; CIS 200 mM, 2 h 37°C): −86%; hydration of hard mucin [3]: dramatic percentage of hydration; inhibition of growth [4]: no or little effect; effect on in vitro growth [5]: no or little effect; IC50 (as Cysteamine) (YOU mesothelioma cells): 560 µg/mL; ICmax (YOU mesothelioma cells; at 11.3 mg/ml cysteamine): 94% at 11.3 mg/ml; IC50 (as Cysteamine) (PET mesothelioma cells): 781 µg/mL; ICmax (PET mesothelioma cells; at 11.3 mg/ml cysteamine): 85% at 11.3 mg/ml; Mean Diff., Column A (control) vs. Column B [6]: 9.610; Mean Diff., Column A (control) vs. Column B ([7]; 0.3 mg/ml (FIG. 20B, Table 14B)): −1.313; Mean Diff., Column A (control) vs. Column B ([7]; 0.5 mg/ml (FIG. 20A, Table 14A)): 21.10; Mean Diff., Column A (control) vs. Column B ([7]; 0.5 mg/ml (FIG. 20C, Table 14C)): 49.64 |
| N[C@@H](CS)C(=O)O [L-Cysteine] |  |  |  |  | 10.30 | 51.11 | 25.30 |  |  |  |  |
| N[C@@H](CCC(=O)N[C@@H](CS)C(=O)NCC(=O)O)C(=O)O [L-Glutathione reduced] |  |  |  |  |  |  |  | 25.68 | 32.71 | 19.54 |  |
| CC(=O)N[C@@H](CS)C(=O)O [NAC, N-acetyl cysteine] | 20.45 | 23.92 | 18.80 | only showed hydration initially, with subsequent slight disintegration and hydration | 15.35 | 17.73 | 9.290 | 25.62 | 30.51 | 18.03 |  |
